According to publication PMC11725774 (Cancer Research Communications, 2025):

What was measured:
Plasma protein binding = type: in vitro ADME; details: mouse, rat, dog, and human plasma
CYP3A = test: CYP inhibition; type: in vitro ADME; details: human
[1] = tested on: BIM in parental MOLM-14 cells; test: Western blot of apoptotic proteins; details: 75 nmol/L TUS, 48-hour exposure
TUS/R line 1 (MOLM-14) = test: Growth inhibition of TUS-resistant subline; type: cell-based; details: Homo sapiens, MOLM-14, read-out: IC50 (nmol/L), Mean ± SEM, TUS/R line 1
[2] = tested on: p-JAK1, p-JAK2, p-STAT3, p-STAT5 in MOLM-14 cells cocultured with HS-5 cells; test: HS-5 stromal coculture Western blot; type: cell-based, human; details: concentrations <1 μmol/L; MOLM-14 cocultured with HS-5
Procedure: Cells were treated as described in respective Results sections and then lysed with RIPA buffer. Western blot analyses were performed with antibodies capable of detecting both total and phosphorylated forms of each kinase purchased from commercial sources. Information on the antibodies used is provided in the Supplementary Materials section.
HS-5 cells were obtained from ATCC. The HS-5 stromal cells (5 × 10^5 cells/well) were seeded into six-well plates, and 24 hours later, MOLM-14 cells (1 × 10^6 cells/well) were seeded into the same plate and then cultured for 48 hours. Cultures were then exposed to test drugs for 2 hours, harvested, and lysates were prepared for Western blotting. For stimulation studies, MOLM-14 or KG-1a cells were seeded at 5.0 to 6.0 × 10^6 cells/well into six-well plates in 2 mL medium. Cells were stimulated with 500 μg/mL fibrinogen (Sigma-Aldrich, Catalog # F3879) for 1 hour at 37°C. Alternatively, they were treated with 10 μg/mL IgG (Invitrogen, Catalog # 31154) for 10 minutes on ice followed by IgG cross-linking with 1 μg/mL anti–human IgG antibody for 10 minutes on ice. After these incubations, the media were removed and the cells were washed with cold PBS, lysed, and analyzed by Western blotting.

TUS/R line 4 (MOLM-14) = test: Growth inhibition of TUS-resistant subline; type: cell-based, human; details: Homo sapiens
[3] = tested on: MOLM-13 cells inoculated orthotopically; test: Orthotopic AML xenograft survival; type: in vivo, NOD/SCID mice; details: oral TUS 30 mg/kg every day; vehicle 37 days
Procedure: (§1) For subcutaneous inoculation, MV-4-11 and MOLM-14 FLT3-ITD/F691L cells were mixed with BD Matrigel Matrix (1:0.5 ratio), and 2 to 5 × 10^6 cells in 0.15 mL were inoculated subcutaneously in NOD/SCID mice. Tumor size was assessed using a Vernier caliper 2 to 3 times weekly and volume was calculated using the formula for an ellipsoid sphere. For orthotopic inoculation, MOLM-14-Luc/GFP cells (2 × 10^6 cells in 0.03 mL PBS) or MV-4-11-Luc and MOLM-13-Luc cells (1 × 10^6 cells in 50 μL Hank’s balanced salt solution) were injected into the left tibia of NOD/SCID mice. Tumor growth was monitored weekly by bioluminescence imaging using an IVIS Lumina Series III In vivo imaging system (PerkinElmer Inc.). The Institutional Animal Care and Use Committee of the Hanmi Research Center approved the animal study protocol.
(§2) For both subcutaneous and bone marrow orthotopic models, after confirming tumor formation by palpation or bioluminescence imaging, mice were randomly assigned into experimental groups.
(§3) A P value less than 0.05 was considered statistically significant.

[4] = tested on: MV-4-11 cells inoculated orthotopically; test: Orthotopic AML xenograft survival; type: in vivo, NOD/SCID mice; details: oral TUS 30 mg/kg every day; vehicle 42 days
Procedure: as §1, §2, §3

[5] = tested on: MOLM-14 cells inoculated orthotopically; test: Orthotopic AML xenograft survival; type: in vivo, NOD/SCID mice; details: oral TUS 30 mg/kg every day; vehicle 17 days
Procedure: as §1, §2, §3

[6] = tested on: MCL1 in parental MOLM-14 cells; test: Western blot of apoptotic proteins; details: 75 nmol/L TUS, 48-hour exposure
TUS/R line 3 (MOLM-14) = test: Growth inhibition of TUS-resistant subline; type: cell-based, human; details: Homo sapiens
[7] = Pharmacokinetics and tissue distribution in mice; type: in vivo
Pharmacokinetics in dog = type: in vivo
SYK = molecular target: T1, SYK (Homo sapiens, UniProt P43405); test: Broad kinase inhibition screen, recombinant kinase; type: biochemical; details: broad kinase inhibition screens
T1 construct: purchased Thermo Fisher Scientific or Reaction Biology, Inc. (screening service)
From the text: (§4) Data from these screens are available on request.

JAK1 = molecular target: T2, JAK1 (Homo sapiens, UniProt P23458); test: Broad kinase inhibition screen, recombinant kinase; type: biochemical; details: broad kinase inhibition screens
T2 construct: purchased Thermo Fisher Scientific or Reaction Biology, Inc. (screening service)
From the text: as §4

JAK2 = molecular target: T3, JAK2 (Homo sapiens, UniProt O60674); test: Broad kinase inhibition screen, recombinant kinase; type: biochemical; details: broad kinase inhibition screens
T3 construct: purchased Thermo Fisher Scientific or Reaction Biology, Inc. (screening service)
From the text: as §4

TAK1 = molecular target: T4, TAK1 (Homo sapiens, UniProt O43318); test: Broad kinase inhibition screen, recombinant kinase; type: biochemical; details: broad kinase inhibition screens
T4 construct: purchased Thermo Fisher Scientific or Reaction Biology, Inc. (screening service)
From the text: as §4

RSK-2 = molecular target: T5, RSK-2 (Homo sapiens, UniProt P51812); test: Broad kinase inhibition screen, recombinant kinase; type: biochemical; details: broad kinase inhibition screens
T5 construct: purchased Thermo Fisher Scientific or Reaction Biology, Inc. (screening service)
From the text: as §4

[8] = Tolerability in orthotopic AML models; type: in vivo; details: daily dosing at 30 mg/kg, all three orthotopic models
From the text: ; Fig. 3A). The increase in the MOLM-13 model was from 37 to 75 days (P < 0.0001; Fig. 3B) and in the MOLM-14 model, it was from 17 to 65 days (Fig. 3C).

[9] = mouse, plasma, mice, oral doses of 1, 3, 10, and 30 mg/kg

T2 sequence (P23458 whole entry): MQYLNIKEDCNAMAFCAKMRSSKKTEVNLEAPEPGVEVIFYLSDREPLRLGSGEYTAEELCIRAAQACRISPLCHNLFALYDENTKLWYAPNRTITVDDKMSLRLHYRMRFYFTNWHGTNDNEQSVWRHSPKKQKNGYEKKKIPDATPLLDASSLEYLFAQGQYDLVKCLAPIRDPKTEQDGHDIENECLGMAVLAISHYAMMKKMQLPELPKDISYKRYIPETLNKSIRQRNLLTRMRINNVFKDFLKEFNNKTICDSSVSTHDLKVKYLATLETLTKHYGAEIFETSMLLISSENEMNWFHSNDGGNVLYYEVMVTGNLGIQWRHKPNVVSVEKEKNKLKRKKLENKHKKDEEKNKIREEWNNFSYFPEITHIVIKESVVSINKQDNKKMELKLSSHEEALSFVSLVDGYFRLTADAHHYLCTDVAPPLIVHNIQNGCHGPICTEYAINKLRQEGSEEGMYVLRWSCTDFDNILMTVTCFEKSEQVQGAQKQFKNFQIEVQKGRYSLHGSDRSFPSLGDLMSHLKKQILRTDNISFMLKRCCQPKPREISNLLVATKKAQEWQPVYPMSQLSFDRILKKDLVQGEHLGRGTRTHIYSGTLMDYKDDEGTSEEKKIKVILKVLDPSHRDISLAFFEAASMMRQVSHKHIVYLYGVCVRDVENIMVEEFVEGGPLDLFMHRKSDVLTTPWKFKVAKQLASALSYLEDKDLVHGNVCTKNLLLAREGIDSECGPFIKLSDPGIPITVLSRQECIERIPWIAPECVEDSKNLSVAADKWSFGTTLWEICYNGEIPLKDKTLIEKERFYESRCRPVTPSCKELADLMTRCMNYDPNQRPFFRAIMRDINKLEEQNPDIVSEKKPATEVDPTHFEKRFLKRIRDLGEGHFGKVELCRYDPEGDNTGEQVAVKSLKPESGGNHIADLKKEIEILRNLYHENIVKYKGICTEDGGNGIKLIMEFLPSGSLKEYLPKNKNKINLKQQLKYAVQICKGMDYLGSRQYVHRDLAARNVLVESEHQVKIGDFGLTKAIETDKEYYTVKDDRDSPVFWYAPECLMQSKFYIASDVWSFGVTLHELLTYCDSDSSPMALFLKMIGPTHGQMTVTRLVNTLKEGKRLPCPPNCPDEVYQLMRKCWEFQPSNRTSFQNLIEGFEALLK
T4 sequence (O43318 1-303 limits assumed): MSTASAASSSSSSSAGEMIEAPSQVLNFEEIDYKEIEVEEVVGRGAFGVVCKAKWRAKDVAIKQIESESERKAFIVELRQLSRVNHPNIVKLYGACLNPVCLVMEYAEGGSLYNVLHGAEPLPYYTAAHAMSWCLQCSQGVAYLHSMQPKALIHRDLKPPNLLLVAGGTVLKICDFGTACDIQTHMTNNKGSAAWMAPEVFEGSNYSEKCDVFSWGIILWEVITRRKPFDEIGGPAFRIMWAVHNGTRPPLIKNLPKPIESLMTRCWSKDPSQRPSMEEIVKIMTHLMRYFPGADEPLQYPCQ
T4 sequence (Q15750 437-504 partner limits assumed): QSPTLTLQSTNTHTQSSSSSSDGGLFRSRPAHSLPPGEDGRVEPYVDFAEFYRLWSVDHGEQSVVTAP
T5 sequence (P51812 whole entry): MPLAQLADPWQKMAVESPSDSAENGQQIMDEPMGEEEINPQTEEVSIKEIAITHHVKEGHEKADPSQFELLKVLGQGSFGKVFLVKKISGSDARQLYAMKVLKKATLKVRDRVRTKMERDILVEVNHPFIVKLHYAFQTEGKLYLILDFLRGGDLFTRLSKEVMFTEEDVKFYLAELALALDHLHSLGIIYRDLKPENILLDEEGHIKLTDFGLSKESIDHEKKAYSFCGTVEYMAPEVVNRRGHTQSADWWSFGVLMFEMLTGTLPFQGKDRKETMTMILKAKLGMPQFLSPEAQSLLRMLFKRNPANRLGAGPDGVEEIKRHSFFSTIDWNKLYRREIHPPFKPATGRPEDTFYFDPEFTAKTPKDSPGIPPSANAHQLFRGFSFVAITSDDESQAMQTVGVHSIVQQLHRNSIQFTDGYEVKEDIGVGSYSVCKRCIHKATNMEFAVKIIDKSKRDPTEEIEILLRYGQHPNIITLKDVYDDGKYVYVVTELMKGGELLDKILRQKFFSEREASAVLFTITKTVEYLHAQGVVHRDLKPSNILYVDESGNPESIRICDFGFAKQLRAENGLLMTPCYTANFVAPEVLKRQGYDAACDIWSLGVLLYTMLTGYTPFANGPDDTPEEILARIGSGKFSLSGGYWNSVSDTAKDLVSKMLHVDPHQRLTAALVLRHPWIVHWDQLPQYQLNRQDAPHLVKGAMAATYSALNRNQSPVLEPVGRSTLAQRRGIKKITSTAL
T3 sequence (O60674 whole entry): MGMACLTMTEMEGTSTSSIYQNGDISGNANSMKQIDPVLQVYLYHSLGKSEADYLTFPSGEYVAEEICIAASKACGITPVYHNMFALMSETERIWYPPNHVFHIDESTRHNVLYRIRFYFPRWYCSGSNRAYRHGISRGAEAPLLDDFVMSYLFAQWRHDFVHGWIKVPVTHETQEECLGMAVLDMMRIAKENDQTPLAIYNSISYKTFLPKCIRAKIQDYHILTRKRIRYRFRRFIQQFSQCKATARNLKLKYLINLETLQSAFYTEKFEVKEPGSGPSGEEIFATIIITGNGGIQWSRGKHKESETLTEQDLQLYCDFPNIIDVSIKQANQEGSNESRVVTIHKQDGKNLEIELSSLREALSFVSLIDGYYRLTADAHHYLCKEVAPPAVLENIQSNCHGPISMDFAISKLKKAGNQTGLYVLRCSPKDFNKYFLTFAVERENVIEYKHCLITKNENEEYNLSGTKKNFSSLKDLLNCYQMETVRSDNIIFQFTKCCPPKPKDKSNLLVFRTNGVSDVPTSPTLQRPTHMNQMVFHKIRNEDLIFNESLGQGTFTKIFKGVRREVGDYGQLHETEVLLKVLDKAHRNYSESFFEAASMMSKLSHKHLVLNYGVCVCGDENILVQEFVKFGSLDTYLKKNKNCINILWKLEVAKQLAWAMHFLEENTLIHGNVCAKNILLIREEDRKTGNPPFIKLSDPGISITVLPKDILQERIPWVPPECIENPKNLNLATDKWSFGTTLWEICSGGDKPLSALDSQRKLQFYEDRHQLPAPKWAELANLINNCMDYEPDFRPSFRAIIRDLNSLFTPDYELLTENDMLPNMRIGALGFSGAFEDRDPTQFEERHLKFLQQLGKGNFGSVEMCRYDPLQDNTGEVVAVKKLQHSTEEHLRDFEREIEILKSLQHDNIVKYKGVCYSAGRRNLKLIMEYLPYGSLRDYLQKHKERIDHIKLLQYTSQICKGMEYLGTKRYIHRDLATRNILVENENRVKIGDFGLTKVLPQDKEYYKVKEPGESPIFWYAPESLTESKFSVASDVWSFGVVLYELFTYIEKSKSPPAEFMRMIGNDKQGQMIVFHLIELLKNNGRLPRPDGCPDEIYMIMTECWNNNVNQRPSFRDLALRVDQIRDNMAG

Cc1ccc2c(-c3nc(Nc4cc(CN5C[C@@H](C)N[C@@H](C)C5)cc(C5CC5)c4)ncc3Cl)c[nH]c2c1 [TUS, Tuspetinib]
Plasma protein binding (Plasma protein binding): high | Ki (CYP3A): < 1000 nM | increase of BIM [1]: 10 fold | IC50 (TUS/R line 1 (MOLM-14)): 183 ± 69.5 nmol/L | inhibition of p-JAK1, p-JAK2, p-STAT3, or p-STAT5 [2]: Neither TUS nor gilteritinib inhibited | GI50 (TUS/R line 4 (MOLM-14); MOLM-14, read-out: GI50 (nM) TUS/R line 4, mean ± SEM (Supplementary Table 6)): 144 ± 31 nM | IC50 (TUS/R line 4 (MOLM-14); MOLM-14, read-out: IC50 (nmol/L), Mean ± SEM, TUS/R line 4): 144 ± 31.5 nmol/L | median survival [3]: 75 days | median survival [4]: 147 days | median survival [5]: 65 days | reduction of MCL1 [6]: 70% | GI50 (TUS/R line 3 (MOLM-14); MOLM-14, read-out: GI50 (nM) TUS/R line 3, mean ± SEM (Supplementary Table 6)): 108 ± 24 nM | IC50 (TUS/R line 3 (MOLM-14); MOLM-14, read-out: IC50 (nmol/L), Mean ± SEM, TUS/R line 3): 108 ± 24 nmol/L | dose proportionality of systemic exposure ([7]; mice, oral 1 to 30 mg/kg): greater than dose proportional | clearance ([7]; mouse, plasma, male mice, single intravenous dose of 3 mg/kg): 5 mL/min/kg | Vd ([7]; mouse, plasma, male mice, single intravenous dose of 3 mg/kg, read-out: Vss): 2.4 L/kg | half-life ([7]; mouse, plasma, male mice, single intravenous dose of 3 mg/kg, read-out: terminal plasma half-life (converted)): 5.5 h | Tmax [7, 9]: 1 to 4 h | bioavailability [7, 9]: 21.4 to 47.2% | dose proportionality of AUC (Pharmacokinetics in dog): linearly proportional to dose | bioavailability (Pharmacokinetics in dog; in vivo, oral): 99% | IC50 (SYK): 2.9 nM | IC50 (JAK1): 2.9 nM | IC50 (JAK2): 6.3 nM | IC50 (TAK1): 7 nM | IC50 (RSK-2): 9.7 nM | tolerability / weight loss [8]: well tolerated in mice with no significant weight loss
